pKd: −log10 of the molar value. Active and inactive are the calls of the source. The rule behind the calls is not given here.
Key:
Mus musculus [1] = experiment: Antidepressant activity in Reserpine-induced depressive ICR mouse model assessed as decrease in immobility time at 300 microg/kg,ip administrated on day 4 to 8 measured on day 11 by tail suspension test; format: functional, organism-based; settings: dose 300.0 µg/kg, time 8.0 day
HT-22 = experiment: Neuroprotective activity against CORT-induced cytotoxicity in mouse HT-22 cells assessed as increase in cell viability at 12.5 to 100 uM incubated for 24 hrs by CCK-8 assay; format: functional, cell-based; settings: dose 12.5-100 µM
[2] = Toxicity in chronic restraint stress-induced depressive C57BL/6J mouse model assessed as kidney pathological change at 25 to 300 microg/kg,ip administrated on day 29 to 33 measured on day 36 by hematoxylin and eosin staining based microscopic analysis; format: tissue-based; settings: in vivo, 192 h, dose 25-300 µg/kg, time 8 day
Mus musculus [3] = experiment: Antidepressant activity in chronic restraint stress-induced depressive C57BL/6J mouse model assessed as increase in hippocampal BDNF mRNA expression at 0.3 mg/kg,ip administration measured after 24 hrs by qRT-PCR analysis; format: functional, organism-based
[4] = AUC (0 to infinity) in Sprague-Dawley rat at 0.3 mg/kg,ip measured at 0.05 to 24 hrs of post administration by LC-MS/MS analysis; format: ADME, organism-based; settings: in vivo, time 0.05-24 hrs
[5] = Cmax in Sprague-Dawley rat at 0.3 mg/kg,ip measured at 0.05 to 24 hrs of post administration by LC-MS/MS analysis; format: ADME, organism-based; settings: in vivo, time 0.05-24 hrs
[6] = MRT (0 to last) in Sprague-Dawley rat at 0.3 mg/kg,ip measured at 0.05 to 24 hrs of post administration by LC-MS/MS analysis; format: ADME, organism-based; settings: in vivo, time 0.05-24 hrs
[7] = Toxicity in chronic restraint stress-induced depressive C57BL/6J mouse model assessed as decrease in percentage of spontaneous alternation at 2 mg/kg,ip administration by Y-maze test; format: organism-based; settings: in vivo
Mus musculus [8] = experiment: Antidepressant activity in Reserpine-induced depressive ICR mouse model assessed as reduction in weight loss at 25 to 300 microg/kg,ip administrated on day 4 to 8 for 5 days; format: functional, organism-based; settings: dose 25-300 µg/kg, time 5.0 day
Mus musculus [9] = experiment: Antidepressant activity in Reserpine-induced depressive C57BL/6J mouse model assessed as decrease in immobility time at 0.1 to 1 mg/kg,ip administration measured after 30 mins by tail suspension test; format: functional, organism-based; settings: dose 0.1-1 mg/kg
[10] = Toxicity in chronic restraint stress-induced depressive C57BL/6J mouse model assessed as heart pathological change at 25 to 300 microg/kg,ip administrated on day 29 to 33 measured on day 36 by hematoxylin and eosin staining based microscopic analysis; format: tissue-based; settings: in vivo, 192 h, dose 25-300 µg/kg, time 8 day
[11] = Cmax in Sprague-Dawley rat at 0.3 mg/kg,iv measured at 0.05 to 24 hrs of post administration by LC-MS/MS analysis; format: ADME, organism-based; settings: in vivo, time 0.05-24 hrs
[12] = target: T1, Muscarinic acetylcholine receptor M1 (Homo sapiens, UniProt P11229); experiment: Binding affinity to human N-terminal eGFP-tagged CHRM1 expressed in HEK293T cells assessed as dissociation constant incubated for 10 mins by microscale thermophoresis assay; format: cell-based
T1 sequence (P11229 whole entry): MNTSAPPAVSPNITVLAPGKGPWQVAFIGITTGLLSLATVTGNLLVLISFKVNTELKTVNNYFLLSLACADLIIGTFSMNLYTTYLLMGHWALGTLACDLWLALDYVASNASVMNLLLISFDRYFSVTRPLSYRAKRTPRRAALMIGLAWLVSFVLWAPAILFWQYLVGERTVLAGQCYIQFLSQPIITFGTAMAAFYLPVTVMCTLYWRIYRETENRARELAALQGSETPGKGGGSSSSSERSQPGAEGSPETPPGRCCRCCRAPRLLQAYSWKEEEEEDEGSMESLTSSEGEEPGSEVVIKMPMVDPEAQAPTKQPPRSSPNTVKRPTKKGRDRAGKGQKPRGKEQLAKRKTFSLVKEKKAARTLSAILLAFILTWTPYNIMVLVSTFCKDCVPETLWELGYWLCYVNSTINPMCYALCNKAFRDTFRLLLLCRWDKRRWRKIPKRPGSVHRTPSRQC

[13] = Toxicity in chronic restraint stress-induced depressive C57BL/6J mouse model assessed as decrease in percentage of spontaneous alternation at 1 mg/kg,ip administration by Y-maze test; format: organism-based; settings: in vivo
[14] = AUC (0 to infinity) in Sprague-Dawley rat at 0.3 mg/kg,iv measured at 0.05 to 24 hrs of post administration by LC-MS/MS analysis; format: ADME, organism-based; settings: in vivo, time 0.05-24 hrs
[15] = Bioavailability in Sprague-Dawley rat at 0.3 mg/kg,ip measured at 0.05 to 24 hrs of post administration by LC-MS/MS analysis; format: ADME, organism-based; settings: in vivo, time 0.05-24 hrs
Mus musculus [16] = experiment: Antidepressant activity in chronic restraint stress-induced depressive C57BL/6J mouse model assessed as reduction in immobility time at 100 to 300 microg/kg,ip administrated on day 29 to 33 measured on day 35 by forced swimming test; format: functional, organism-based; settings: dose 100-300 µg/kg, time 7.0 day
Mus musculus [17] = experiment: Antidepressant activity in Reserpine-induced depressive ICR mouse model assessed as change in total distance traveled at 25 to 300 microg/kg,ip administrated on day 4 to 8 measured on day 9 by open field test; format: functional, organism-based; settings: dose 25-300 µg/kg, time 6.0 day
[18] = Toxicity in chronic restraint stress-induced depressive C57BL/6J mouse model assessed as liver pathological change at 25 to 300 microg/kg,ip administrated on day 29 to 33 measured on day 36 by hematoxylin and eosin staining based microscopic analysis; format: tissue-based; settings: in vivo, 192 h, dose 25-300 µg/kg, time 8 day
[19] = Tmax in Sprague-Dawley rat at 0.3 mg/kg,ip measured at 0.05 to 24 hrs of post administration by LC-MS/MS analysis; format: ADME, organism-based; settings: in vivo, time 0.05-24 hrs
[20] = AUC (0 to last) in Sprague-Dawley rat at 0.3 mg/kg,iv measured at 0.05 to 24 hrs of post administration by LC-MS/MS analysis; format: ADME, organism-based; settings: in vivo, time 0.05-24 hrs
[21] = Half life in Sprague-Dawley rat at 0.3 mg/kg,iv measured at 0.05 to 24 hrs of post administration by LC-MS/MS analysis; format: ADME, organism-based; settings: in vivo, time 0.05-24 hrs
Mus musculus [22] = experiment: Antidepressant activity in chronic restraint stress-induced depressive C57BL/6J mouse model assessed as increase in hippocampal BDNF protein expression at 0.3 mg/kg,ip administration measured after 8 hrs by Western blotting analysis; format: functional, organism-based
[23] = Toxicity in chronic restraint stress-induced depressive C57BL/6J mouse model assessed as spleen pathological change at 25 to 300 microg/kg,ip administrated on day 29 to 33 measured on day 36 by hematoxylin and eosin staining based microscopic analysis; format: tissue-based; settings: in vivo, 192 h, dose 25-300 µg/kg, time 8 day
[24] = Toxicity in chronic restraint stress-induced depressive C57BL/6J mouse model assessed as memory impairment at 4 mg/kg,ip administration and measured after 4 hrs by novel object recognition test; format: organism-based; settings: in vivo
Mus musculus [25] = experiment: Antidepressant activity in chronic restraint stress-induced depressive C57BL/6J mouse model assessed as increase in hippocampal BDNF protein expression at 0.3 mg/kg,ip administration measured after 24 hrs by Western blotting analysis; format: functional, organism-based
[26] = MRT (0 to last) in Sprague-Dawley rat at 0.3 mg/kg,iv measured at 0.05 to 24 hrs of post administration by LC-MS/MS analysis; format: ADME, organism-based; settings: in vivo, time 0.05-24 hrs

Compound: CN1[C@@H]2C[C@@H](OC(=O)[C@@](F)(CO)c3ccccc3)C[C@H]1[C@@H]1O[C@@H]12
- Activity (Mus musculus [1]): Active
- Activity (HT-22): Active
- Activity [2]: Non-Toxic
- Activity (Mus musculus [3]): inactive
- AUC(0-inf) [4]: 25.9 ng·h/mL
- Cmax [5]: 41.9 ng/mL
- MRT last [6]: 23 min
- Activity [7]: Non-Toxic
- Activity (Mus musculus [8]): Active
- Activity (Mus musculus [9]): Active
- Activity [10]: Non-Toxic
- Cmax [11]: 230 ng/mL
- pKd [12]: 3.47
- Activity [13]: Non-Toxic
- AUC(0-inf) [14]: 71.4 ng·h/mL
- bioavailability [15]: 35.5%
- Activity (Mus musculus [16]): Active
- Activity (Mus musculus [17]): inactive
- Activity [18]: Non-Toxic
- Tmax [19]: 12.5 min
- AUC(0-t) [20]: 68.3 ng·h/mL
- half-life [21]: 13.9 min
- Activity (Mus musculus [22]): Active
- Activity [23]: Non-Toxic
- Activity [24]: Toxic
- Activity (Mus musculus [25]): inactive
- MRT last [26]: 13.8 min
